Experimental data taken from ChEMBL document CHEMBL1142557, “Novel bioactive sulfated alkene and alkanes from the mediterranean ascidian Halocynthia papillosa” (J Nat Prod, 2000).
Values after ≈ are worked out from the molar mass of the structure shown. Active and inactive are the calls of the source. The calls are words filed in the database; no cut-off is given here.

How the values were obtained:
C6 = assay: Cytotoxicity against rat C6 cells assessed as cell viability after 96 hrs by MTT assay; assay type: functional, cell-based; settings: for IC50: C6, 96 h
WEHI-164 = assay: Cytotoxicity against mouse WEHI164 cells assessed as cell viability after 96 hrs by MTT assay; assay type: functional, cell-based; settings: WEHI-164, 96 h

SMILES	IC50 (C6) [µg/mL]	IC50 (WEHI-164) [µg/mL]	Activity (C6)
Sc1ncnc2nc[nH]c12 [MERCAPTOPURINE ANHYDROUS]	30.2 (≈ 198 µM)	1.3 (≈ 8.54 µM)	–
CCC=CCCCCOS(=O)(=O)O	515 (≈ 2470 µM)	12.2 (≈ 58.6 µM)	–
CC(C)CCCCCOS(=O)(=O)O	545 (≈ 2590 µM)	15 (≈ 71.3 µM)	–
CC(C)CCC[C@@H](C)COS(=O)(=O)O	–	20.9 (≈ 93.2 µM)	inactive
